# From paper PMC4017264 (Molecular Cell, 2014)
# Columns and labels:
# HOIP 1-184 = assay: analytical size-exclusion chromatography binding; parameters: species or system Human; settings: Superdex 75; 30 µM HOIP, 25 µM OTULIN, 20 mM Tris pH 7.4, 150 mM NaCl, 2 mM DTT, room temperature 15 min
# Experimental: All mutations were generated by site directed mutagenesis using the QuikChange method with KOD HotStart DNA polymerase.
# Protein expression and purification
# HOIP PUB domain constructs were expressed in Rosetta2 (DE3) pLacI cells.
# Cells were grown at 30 °C in 2 xTY medium supplemented with 30 µg/ml kanamycin and 34 µg/ml chloramphenicol to an OD600 of 0.8. The culture was cooled to 18 °C prior to overnight induction with 400 µM IPTG. Cells were resuspended and lysed by sonication in lysis buffer (20 mM Tris pH 7.4, 300 mM NaCl, 50 mM imidazole, 2 mM #-mercaptoethanol, lysozyme, DNaseI
# (Sigma) and protease inhibitor cocktail (Roche)). HOIP was purified by immobilized metal affinity chromatography using a HisTrap column (GE Life Sciences). The His6-tag was cleaved by overnight incubation with 3C protease. The protein was buffer exchanged into 20 mM Tris pH 8.5, 2 mM DTT and purified further by anion exchange chromatography (ResourceQ, GE Life Sciences). Eluted HOIP was then subjected to size exclusion chromatography (HiLoad 16/60 Superdex 75, GE Life Sciences) in buffer containing 20 mM Tris pH 8.5, 150 mM NaCl, 2 mM DTT. The resultant fractions were judged to be 99% pure following SDS-PAGE analysis and flash frozen. OTULIN was expressed and purified according to (Keusekotten et al., […]
# kind gift from Mark Allen (MRC LMB).
# Analytical size exclusion chromatography binding studies […]
# [1] = system: LUBAC-induced NFκB activity; assay: NFκB luciferase reporter assay (LUBAC-induced); type: cell-based; settings: HEK293T cells; for inhibition of NFκB activity induced by HOIP PIM pocket mutants (N102D, Y82A) + HOIL-1 (in words): compared with wild-type HOIP
# Experimental: Cells were cotransfected with the NFκB luciferase reporter construct pBIIXluc and the thymidine kinase-renilla luciferase construct in addition to other vectors used in the study. After 24 hr, cells were lysed in passive lysis buffer (Promega), and luciferase activity was recorded. Protein expression levels were determined by western blotting of cell lysates. […]
# (§1) siOTULIN: […], siMM […]
# Luciferase reporter assays
# Cells were co-transfected with the NF!B luciferase reporter construct pBIIXluc and the thymidine kinase-renilla luciferase construct to enable normalization of transfection efficiency. Cells were co-transfected with additional plasmids as indicated. After 24 h cells were lysed in 75 %L passive lysis buffer (Promega) and luciferase activity was measured on a FLUOstar Omega
# Microplate Reader (BMG LABTECH GmbH, Offenburg, Germany) using the DualLuciferase ® Assay System (Promega) according to the manufacturer’s instructions. Protein expression levels were determined by SDS-PAGE and Western blotting of cell lysates as indicated. The data shown represents mean ± SEM. A two-tailed Student´s t -test was applied to evaluate statistical
# [2] = system: HOIP PUB domain (15N HOIP 1-184); assay: NMR binding (chemical shift perturbation) to 15N-labeled HOIP PUB domain; parameters: species or system Human; settings: 15N BEST-TROSY NMR, 100 μM 15N HOIP 1-184, 20 mM phosphate pH 6.8, 50 mM NaCl, 2 mM DTT, 298K
# Experimental: Standard triple-resonance experiments (HNCA, HN(CO)CA, HNCACB, CBCA(CO)NH, and HBHA(CO)NH) were acquired for the assignment of HOIP resonances. Constant time ^13C and ^13C-HSQC were acquired for the methyl and aromatic regions. In addition, (HB)CB(CGCD)HD and (HB)CB(CGCDCE)HE experiments coupled the Cβ of tyrosine resonances to the Hδ and Hε positions of the tyrosine ring, respectively.
# Fluorescence polarization binding assays
# 10 µl of 100 nM FITC-Ahx peptides of either OTULIN (49-67) or p97 (797-806) were aliquoted into a 384-well low volume plate (Corning). Serial dilutions of HOIP PUB into FP assay buffer (20 mM Tris pH 7.4, 100 mM NaCl, 1 mM DTT) were prepared and 10 µl of this was aliquoted to FITC-Ahx peptide-containing wells. Fluorescence polarization was recorded on a PheraStar plate reader (BMG Labtech) using an optics module with $ex = 485 nm and $em = 520 nm. To derive binding constants (KD), polarization values were fitted to a one-site binding model using Graphpad Prism 5.
# Nuclear Magnetic Resonance Spectroscopy
# Uniformly labeled 15N or 13C, 15N samples of HOIP were prepared following growth in 2M9 medium supplemented with either 15N NH4Cl or 13C glucose.
# Proteins were purified as described above and all samples were exchanged into NMR sample buffer (20 mM Na2HPO4/NaH2PO4 pH 6.8, 50 mM NaCl, 2 mM DTT). Lyophilized OTULIN and p97 PIM peptides were reconstituted in NMR sample buffer and the pH adjusted to pH 6.8 prior to use. NMR data were acquired at 298K on Bruker Avance III 600 MHz and Avance2+ 700
# MHz spectrometers, equipped with cryogenic triple resonance TCI probes.
# Standard triple resonance experiments (HNCA, HN(CO)CA, HNCACB, CBCA(CO)NH, HBHA(CO)NH) were acquired for the assignment of backbone
# HOIP resonances. In addition, constant-time (ct) 13C and 13C-HSQC were acquired for the methyl and aromatic regions. For assignment of the H",H# resonances of HOIP tyrosines, (HB)CB(CGCD)HD and (HB)CB(CGCDCE)HE spectra were acquired, which coupled the C$ position of the tyrosine resonances to the H"/H# position of the tyrosine ring respectively. […]
# [3] = system: endogenous LUBAC (HOIP, HOIL-1, SHARPIN); assay: coimmunoprecipitation of endogenous LUBAC components with HA-tagged OTULIN; type: cell-based; settings: HA-OTULIN variants in HEK293T cells, anti-HA IP, western blot
# Experimental: Transfected HEK293T or U2OS and NOD2 cells were lysed in the presence of protease and phosphatase inhibitors. Clarified lysates were incubated overnight with anti-V5 and anti-HA-agarose resin. […]
# as §1
# Immunoprecipitation of HOIP-V5 and HA-OTULIN
# HEK293T or U2OS/NOD2 cells were transfected as indicated. The cells were lysed in IP buffer buffer (25 mM HEPES pH 7.4, 150 mM KCl, 2 mM MgCl2, 1 mM EGTA, 0.5% (v/v) Triton X-100) supplemented with 5 mM NEM (Sigma-Aldrich), cOmplete protease inhibitor cocktail (Roche) and PhosSTOP
# (Roche). After 30 minutes on ice, the lysates were cleared by centrifugation and incubated overnight at 4 °C with anti-V5-agarose resin or anti-HA-agarose resin. The beads were washed four times in ice-cold IP buffer and the precipitated material was eluted with 0.2 M glycine, pH 2.5. […]
# [4] = system: HOIP (Met1-linked polyUb); settings: overexpression of catalytically inactive OTULIN, ref Fiil et al., 2013, Keusekotten et al.; cited from earlier work
# Description: So far, the cellular consequences of OTULIN-LUBAC interaction are unclear. […] We wondered whether this depended on the formation of the OTULIN-HOIP complex or whether OTULIN would act in trans on the complex. When coexpressed with HOIL-1, HOIP PUB binding mutants autoubiquitinated in cells exp ...
# [5] = system: HOIP (Met1-linked polyUb); assay: HOIP autoubiquitination, purification of endogenous Met1-polyUb conjugates (M1-SUB pulldown); type: cell-based; settings: U2OS/NOD2 cells, ectopic OTULIN variants, basal, identical with L18-MDP or TNF, immunoblot
# Description: Antibodies and affinity resin
# The following antibodies and reagents were used according to the manufacturers’ instructions: anti-HA-agarose resin (A2095), anti-V5-agarose resin (A7345) and rabbit polyclonal anti-HOIP/RNF31 (SAB2102031, Sigma-Aldrich), rat monoclonal anti-HA (#11867423991, Roche Diagnostics, Burgess Hill, UK), mouse monoclonal anti-ubiquitin (IMG-5021, Imgenex, San Diego, CA), rabbit polyclonal anti-SHARPIN (#14626-1-AP, ProteinTech, Chicago, IL), rabbit polyclonal anti-RBCK1/HOIL-1 (NBP1-88301, Novus Biologicals, Littleton, CO), mouse monoclonal anti-V5 (MCA1360, AbD Serotec, Kidlington, UK), mouse monoclonal anti-$-actin (MAB1501, Chemicon, Millipore, Billerica, MA), rabbit polyclonal anti-HOIL-1, rabbit polyclonal anti-HOIP/RNF31
# (Sigma), mouse monoclonal anti-p97 (Thermo Scientific). The
# Fam105B/OTULIN antibody was previously described (Keusekotten et al., 2013). […]
# HEK293ET, RPE1 and U2OS cells were collected, washed with PBS and lysed on ice for 30 minutes in SEC cell extraction buffer (150 mM NaCl, 50 mM Tris-HCl pH 7.4, 1 mM MgCl2, 1 mM DTT, 0.3% NP40, protease and (Roche)). […] In total 3.1 mg protein extract was analyzed on a Superdex 200 10/300 GL column (GE Life Sciences). […]
Substance,binding to HOIP aa 1-184 (in words) (HOIP 1-184),inhibition of NFκB activity induced by wild-type LUBAC (in words) ([1]; HOIL-1 + wild-type HOIP),"inhibition of NFκB activity induced by HOIP PIM pocket mutants (N102D, Y82A) + HOIL-1 (in words) [1]","inhibition of NFκB activity induced by HOIP PIM pocket mutants (N102D, Y82A) + HOIL-1 (in words) ([1]; listed as wild-type OTULIN)",binding / chemical shift perturbations of HOIP PUB domain (in words) [2],coimmunoprecipitation of endogenous LUBAC components (in words) [3],"HOIP autoubiquitination with Met1-linked polyUb (in words), previously shown [4]",HOIP autoubiquitination with Met1-linked polyUb (in words) [5]
"OTULIN: full-length OTULIN (aa 1–352), Met1-specific deubiquitinase",able to bind,abrogated NFκB activity,less effective in inhibiting activity,reduced the ability of OTULIN to antagonize LUBAC-induced NFκB activity,pattern of HOIP CSPs was identical,coimmunoprecipitated all proteins from the endogenous LUBAC complex,–,–
OTULIN C129A: catalytically inactive OTULIN C129A mutant (CA),–,–,–,–,–,–,lead to the autoubiquitination of HOIP with Met1-linked polyUb chains,led to extensive HOIP ubiquitination
